The record followed here is patent US9974778B2, “Substituted pyridinones as MGAT2 inhibitors” (BRISTOL-MYERS SQUIBB COMPANY, priority 2014, dated 2018).

For the assay, the target named is T1, Human MGAT-2 (Homo sapiens, UniProt Q3SYC2).
T1 construct: made in house; host or cells: Sf9 cells (membrane preparation)
T1 sequence (Q3SYC2 whole entry): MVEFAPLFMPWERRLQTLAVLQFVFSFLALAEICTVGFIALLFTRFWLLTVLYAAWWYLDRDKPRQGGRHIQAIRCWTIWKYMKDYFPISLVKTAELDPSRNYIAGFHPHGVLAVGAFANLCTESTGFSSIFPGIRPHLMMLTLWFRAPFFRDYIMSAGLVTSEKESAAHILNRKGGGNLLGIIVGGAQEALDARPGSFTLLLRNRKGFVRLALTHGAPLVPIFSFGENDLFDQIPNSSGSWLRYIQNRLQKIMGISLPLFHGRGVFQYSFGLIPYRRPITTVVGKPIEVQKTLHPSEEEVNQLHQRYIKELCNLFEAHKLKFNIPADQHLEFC
Briefly: MGAT LCMS Assay. The format is biochemical. To be noted: human MGAT2 membranes expressed in Sf9 cells; 100 μM 2-oleoylglycerol, 15 μM oleoyl-coenzyme A; read-out: h-MGAT LCMS IC50. In outline: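 Robotic enzyme reaction shaken 10 min, quenched with ice-cold methanol containing 1 μg/mL 1,2-distearoyl-rac-glycerol internal standard. Diolein product measured by LC/MS (C8 column, 65° C, APCI(+) triple quad). IC50 derived from diolein/internal standard peak area ratio.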
With `CCOc1ccc(NC(=O)c2c(-c3ccc(C)cc3)cc(C3(F)CCCC3)[nH]c2=O)cc1` [Example 54, N-(4-Ethoxyphenyl)-6-(1-fluorocyclopentyl)-2-oxo-4-(p-tolyl)-1,2-dihydropyridinc-3-carboxamide], the IC50 stood at 127 nM.
Regarding `Cc1ccc(-c2cc(-c3ccc(OCCCC(F)(F)F)c(C)c3)[nH]c(=O)c2-c2nnn[nH]2)cc1` [Example 58, 6-(3-Methyl-4-(4,4,4-trifluorobutoxy)phenyl)-3-(1H-tetrazol-5-yl)-4-(p-tolyl)pyridin-2(1H)-one], the IC50 turned out to be 575 nM.
To `CCc1ccc(-c2cc(-c3ccc(C4=CCC(C(C)(C)C)CC4)cc3)[nH]c(=O)c2-c2nn[nH]n2)s1` (stereo not shown) [Example 163, 6-[4-(4-tert-Butylcyclohex-1-en-1-yl)phenyl]-4-(5-ethylthiophen-2-yl)-3-(2H-1,2,3,4-tetrazol-5-yl)-1,2-dihydropyridin-2-one] belongs 69 nM; to `Cc1ccc(-c2c(Br)c(-c3ccc(OCCCC(F)(F)F)cc3)[nH]c(=O)c2-c2nn[nH]n2)cc1C` [Example 36, 5-Bromo-4-(3,4-dimethylphenyl)-3-(2H-tetrazol-5-yl)-6-(4-(4,4,4-trifluorobutoxy)phenyl)pyridin-2(1H)-one], 311 nM; to `CCOc1cc(OCCCCCC(F)(F)F)ccc1-c1cc(-c2ccc(C3CC3)cc2)c(-c2nnn[nH]2)c(=O)[nH]1` [Example 124, 4-(4-Cyclopropylphenyl)-6-(2-ethoxy-4-((6,6,6-trifIuorohexyl)oxy)phenyl)-3-(1H-tetrazol-5-yl)pyridin-2(1H)-one], 129 nM.
The same measure for `CC/C=C/c1c(-c2ccc(CCCCC)cc2)[nH]c(=O)c(C(=O)Nc2ccc(OCC)cc2)c1-c1ccc(C)cc1` [Example 31, (E)-5-(But-1-en-1-yl)-N-(4-ethoxyphenyl)-2-oxo-6-(4-pentylphenyl)-4-(p-tolyl)-1,2-dihydropyridine-3-carboxamide]: 178 nM; for `CCc1ccc(-c2cc(-c3ccc(C4=CCC(C)(C)CC4)cc3)[nH]c(=O)c2-c2nn[nH]n2)s1` [Example 144, 6-(4′,4′-Dimethyl-2′,3′,4′,5′-tetrahydro-[1,1′-biphenyl]-4-yl)-4-(5-ethylthiophen-2-yl)-3-(2H-tetrazol-5-yl)pyridin-2(1H)-one]: 24 nM; for `CCOc1ccc(NC(=O)c2c(-c3ccn(CC)n3)cc(-c3ccc(OCCCC(F)(F)F)cc3F)[nH]c2=O)cc1` [Example 119, N-(4-Ethoxyphenyl)-4-(1-ethyl-1H-pyrazol-3-yl)-6-(2-fluoro-4-(4,4,4-trifluorobutoxy)phenyl)-2-oxo-1,2-dihydropyridine-3-carboxamide]: 10 nM.
Take `CCOc1cc(OCCCC(F)(F)F)ccc1-c1cc(-c2ncc(C3CC3)s2)c(C(=O)NS(C)(=O)=O)c(=O)[nH]1` [Example 143, 4-(5-Cyclopropylthiazol-2-yl)-6-(2-ethoxy-4-(4,4,4-trifluorobutoxy)phenyl)-N-(methylsulfonyl)-2-oxo-1,2-dihydropyridine-3-carboxamide]: the IC50 amounted to 52 nM.
In the case of `Cc1ccc(-c2cc(-c3ccc(OCCCC(F)(F)F)cc3F)[nH]c(=O)c2C(=O)Nc2ccc(OC(F)(F)F)cc2)cc1` [Example 122, 6-(2-Fluoro-4-(4,4,4-trifluorobutoxy)phenyl)-2-oxo-4-(p-tolyl)-N-(4-(trifluorormethoxy)phenyl)-1,2-dihydropyridine-3-carboxamide], the IC50 was 27 nM.
As to `O=c1[nH]c(-c2ccc(OCCCCCC(F)(F)F)cc2F)cc(-c2nn(CC3CC3)cc2Cl)c1-n1nn[nH]c1=O` [Example 169, 4-[4-Chloro-1-(cyclopropylmethyl)-1H-pyrazol-3-yl]-6-{2-fluoro-4-[(6,6,6-trifluorohexyl)oxy]phenyl}-3-(5-oxo-4,5-dihydro-1H-1,2,3,4-tetrazol-1-yl)-1,2-dihydropyridin-2-one], the IC50 was determined as 9 nM.
As to `Cc1ccc(-c2cc(-c3ccc(OCCCC(F)(F)F)cc3)[nH]c(=O)c2-c2nnn[nH]2)cc1C` [Example 50, 4-(3,4-Dimethylphenyl)-3-(1H-tetrazol-5-yl)-6-(4-(4,4,4-trifluorobutoxy)phenyl)pyridin-2(1H)-one], the IC50 worked out at 109 nM.
With `Cc1ccc(-c2cc(-c3ccc(Cc4ccccc4)cc3)[nH]c(=O)c2-c2nn[nH]n2)cc1` [Example 81, 6-(4-Benzylphenyl)-3-(2H-tetrazol-5-yl)-4-(p-tolyl)pyridin-2(1H)-one], the IC50 is 256 nM.
